Assay results published in the supplement of paper PMC11208160.

Assay: recombinant barcode read abundance after kanamycin selection (control-corrected) (log10(CPM+1)); higher = more efficient recombination; sequences stand for … in AGTGCAGAGAAAATCGGCCAGTTTTCTCTGCCTGCAGTCCGCATGCCGT…AGATTTATGCAGCGGACTGCCTTTCTCCCAAAGTGATAAACCGGACAGTATCATGGACCGGTTTTCCCGGTAATCCGTATTTGCAAGGTTGGTTTCACT; site = the 11-nt target
How it was run: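 Each value is log10(CPM+1). It describes recombination efficiency, taken as averaged, control-corrected counts per million of barcodes at recombinant junctions. The pooled E. coli library paired targets with IS621 bridge RNA target-binding loops, was co-electroporated with a donor plasmid, and was plated twice on chloramphenicol/ampicillin LB agar (control) and twice on chloramphenicol/ampicillin/kanamycin containing 0.1 mM IPTG.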
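Note: IS621 recombinase and bridge RNA in Escherichia coli cells.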

Row | Sequence | recombinant barcode read abundance (log10)
1 | GAGGGCCCTTGGGTTCTAACCTGTTGCCG (site GAGGGCCCTCC) | 1.2
2 | TAGCACCCTTGGGTTCTAACCTGTTGCCG (site TAGCACCCTGG) | 0.239
3 | AGATCGGCTTGGGTTCTAACCTGTTGCCT (site AGGTCGGCTAG) | 0.0375
4 | GGCAAACCTTGGGTTCTAACCTGTTGCGG (site CATGGGACTAT) | 0.0629
5 | TGGATGCCTTGGGTTCTAACCTGTTGCCT (site TGGATGCCTAG) | 0.884
6 | GAGCCACCTTGGGTTCTAACCTGTTGCTG (site GAGCCGCCTCG) | 0.104
7 | ACGAGTCCTTGGGTTCTAACCTGTTGCTT (site ACGAATCCTAA) | 0.365
8 | GTCTTACCTTGGGTTCTAACCTGTTGCTT (site GTCTTACCTAA) | 0.74
9 | GTCTTCCCTTGGGTTCTAACCTGTTGCCG (site ATCTTACCTCG) | 0.0566
10 | GTTTGGACTTGGGTTCTAACCTGTTGCTA (site GTTTGGACTTA) | 0.904
11 | CGTCGGACTTGGGTTCTAACCTGTTGCAG (site CGTCGGACTCT) | 0.3
12 | AGAGAACCTTGGGTTCTAACCTGTTGCCT (site TGAGAACCTAG) | 1.14
13 | TGACCTACTTGGGTTCTAACCTGTTGCCA (site CTCTACTCTAC) | 0.242
14 | GCCGGGTCTTGGGTTCTAACCTGTTGCTT (site GCAGGGTCTAA) | 1.26
15 | GACTCTACTTGGGTTCTAACCTGTTGCTT (site GACTCTACTAA) | 0.65
16 | CGATTACCTTGGGTTCTAACCTGTTGCCT (site CGATTACCTAG) | 0.264
17 | ACCTGCCCTTGGGTTCTAACCTGTTGCCT (site ACCTGTCCTAG) | 0.232
18 | TAAAGAGCTTGGGTTCTAACCTGTTGCGG (site TACAGAGCTCC) | 0.153
19 | AAACGGCCTTGGGTTCTAACCTGTTGCCT (site AAACCGCCTAG) | 0.147
20 | CCACTAGCTTGGGTTCTAACCTGTTGCAG (site CCACTAGCTCT) | 0.85
21 | CTCTACTCTTGGGTTCTAACCTGTTGCCT (site CTCTACTCTAG) | 2.02
22 | AGGCGTCCTTGGGTTCTAACCTGTTGCCG (site AGGCGTCCTGG) | 0.227

Row | Sequence | recombinant barcode read abundance (log10)
23 | TGTCTATCTTGGGTTCTAACCTGTTGCCT (site TGTCTACCTAG) | 0.123
24 | TGGATTGCTTGGGTTCTAACCTGTTGCCT (site TGGATTCCTAG) | 0.0162
25 | CGAATCACTTGGGTTCTAACCTGTTGCCT (site CGAATCGCTAG) | 0.182
26 | GTATCGTCTTGGGTTCTAACCTGTTGCCT (site GTATCGTCTAG) | 1.69
27 | ACAGTAGCTTGGGTTCTAACCTGTTGCCG (site ACAGTAGCTCG) | 0.862
28 | GAACGGGCTTGGGTTCTAACCTGTTGCGG (site GGACGGGCTCT) | 0.12
29 | AGTTTCACTTGGGTTCTAACCTGTTGCTA (site AGTTTCACTTA) | 0.111
30 | GTAAAACCTTGGGTTCTAACCTGTTGCCT (site ATAAAACCTAG) | 0.281
31 | TATACTACTTGGGTTCTAACCTGTTGCTA (site TATACTACTTA) | 0.0716
32 | TAATGTTCTTGGGTTCTAACCTGTTGCAT (site TAATGTTCTAT) | 1.14
33 | GACTTGTCTTGGGTTCTAACCTGTTGCCT (site GACTTGCCTAG) | 0.0458
34 | TAACGGTCTTGGGTTCTAACCTGTTGCTT (site TAACGGTCTAA) | 1.09
35 | TAACTCTCTTGGGTTCTAACCTGTTGCCT (site TAACTCTCTAG) | 1.05
36 | ACAACCTCTTGGGTTCTAACCTGTTGCCG (site TAGGGTACTGC) | 0
37 | TAGGCGACTTGGGTTCTAACCTGTTGCTT (site TAGGCGACTAA) | 0.395
38 | GGTATGTCTTGGGTTCTAACCTGTTGCCT (site AGTATGTCTAG) | 0.204
39 | CTACGTTCTTGGGTTCTAACCTGTTGCAC (site CTACGTTCTGT) | 1.1
40 | CGATTAGCTTGGGTTCTAACCTGTTGCCT (site CGATTAGCTAG) | 0.169
41 | TCGGAGTCTTGGGTTCTAACCTGTTGCAT (site TCGGAGTCTAA) | 0.5
42 | GCGTCCACTTGGGTTCTAACCTGTTGCTA (site GCGTCCACTTA) | 0.0606
43 | TAGTGCTCTTGGGTTCTAACCTGTTGCCA (site TAGTGCTCTGG) | 0.00954
44 | CTCTCGTCTTGGGTTCTAACCTGTTGCCT (site CTCTCGTCTAC) | 0.119

Row | Sequence | recombinant barcode read abundance (log10)
45 | CTATAGGCTTGGGTTCTAACCTGTTGCCT (site CTATAGGCTAG) | 0.159
46 | GCTTACCCTTGGGTTCTAACCTGTTGCTA (site GCTTACCCTTA) | 0.36
47 | GCTCGGGCTTGGGTTCTAACCTGTTGCGG (site GCTCGGGCTCC) | 2.6
48 | ACAAAAGCTTGGGTTCTAACCTGTTGCGG (site ACAAAAGCTCC) | 1.59
49 | GACTTGACTTGGGTTCTAACCTGTTGCCT (site GACTTGTCTAG) | 0.0657
50 | CATAGCTCTTGGGTTCTAACCTGTTGCCT (site CATAGCTCTAG) | 1.24
51 | CAGGACTCTTGGGTTCTAACCTGTTGCTT (site CAGCACTCTTA) | 0.0832
52 | ATTCAAACTTGGGTTCTAACCTGTTGCCT (site ATTCAAACTAG) | 0.788
53 | ATACCACCTTGGGTTCTAACCTGTTGCCT (site ACACCACCTAG) | 1.24
54 | AATGAATCTTGGGTTCTAACCTGTTGCCT (site AATGGATCTAG) | 0.53
55 | CTGTCTCCTTGGGTTCTAACCTGTTGCCT (site ATGTCTCCTAG) | 0.221
56 | ATAGGGACTTGGGTTCTAACCTGTTGCTA (site ATAGGGACTTA) | 2.91
57 | AGTCTAGCTTGGGTTCTAACCTGTTGCGG (site AGGATAGCTCC) | 0.479
58 | AACCTTACTTGGGTTCTAACCTGTTGCCT (site AACCTTACTAG) | 0.631
59 | GGGGAGCCTTGGGTTCTAACCTGTTGCTG (site GGGGAGTCTAA) | 0.358
60 | GAAGTAACTTGGGTTCTAACCTGTTGCCT (site GACGTAACTAG) | 0.194
61 | CTGGAACCTTGGGTTCTAACCTGTTGCGG (site CTAGAAGCTCC) | 0
62 | TTGAATGCTTGGGTTCTAACCTGTTGCCT (site TTGAGTGCTAG) | 0.0419
63 | TGGGACTCTTGGGTTCTAACCTGTTGCCT (site TGTGACTCTAG) | 0.108
64 | GTTTAGTCTTGGGTTCTAACCTGTTGCCT (site GTTTAGTCTAG) | 1.01
65 | GGGTCCACTTGGGTTCTAACCTGTTGCCA (site GGGTCCACTTG) | 1.44
66 | TGTAGATCTTGGGTTCTAACCTGTTGCAT (site TGTAGATCTAT) | 0.152

Row | Sequence | recombinant barcode read abundance (log10)
67 | TCCGAGACTTGGGTTCTAACCTGTTGCCA (site TCCGAGACTAG) | 0.598
68 | GTCCCTCCTTGGGTTCTAACCTGTTGCTT (site GTCCCTCCTAG) | 0.201
69 | CGTATCCCTTGGGTTCTAACCTGTTGCTG (site CGTATCCCTCA) | 0.692
70 | ATGAGGTCTTGGGTTCTAACCTGTTGCTC (site ATGAGGTCTGA) | 1.43
71 | TTGCCGACTTGGGTTCTAACCTGTTGCCA (site TTGTCGACTTG) | 0.116
72 | GGACCATCTTGGGTTCTAACCTGTTGCCT (site GGACCATCTAG) | 0.915
73 | CTAGTGACTTGGGTTCTAACCTGTTGCGG (site CTAGTGACTGC) | 0.141
74 | TCTAGACCTTGGGTTCTAACCTGTTGCCT (site TCTAGACCTAG) | 0.0778
75 | CGGAATCCTTGGGTTCTAACCTGTTGCAT (site CGGAATCCTAT) | 1.15
76 | ATATCGTCTTGGGTTCTAACCTGTTGCCT (site CTATCGTCTAG) | 0.0269
77 | CCGAGTCCTTGGGTTCTAACCTGTTGCCT (site CCGACTCCTAG) | 0.303
78 | TAGCAGTCTTGGGTTCTAACCTGTTGCGC (site TAGCAGTCTGC) | 2.05
79 | CTTTGCCCTTGGGTTCTAACCTGTTGCCT (site CGTTGCCCTAG) | 0.0892
80 | GTCAAGTCTTGGGTTCTAACCTGTTGCTC (site GTCAAGTCTGA) | 0.694
81 | AGTGAATCTTGGGTTCTAACCTGTTGCCT (site AGGGAATCTAG) | 0.286
82 | CACAACACTTGGGTTCTAACCTGTTGCCT (site CACAACACTAG) | 1.84
83 | CGGATTGCTTGGGTTCTAACCTGTTGCCT (site CGGATTGCTAG) | 0.533
84 | CGGCACACTTGGGTTCTAACCTGTTGCGG (site CGGCACACTCC) | 1.86
85 | AGGTCCTCTTGGGTTCTAACCTGTTGCCT (site AGGTCCTCTAA) | 1.05
86 | TAGAACACTTGGGTTCTAACCTGTTGCTT (site TAGAACACTAA) | 0.16
